Measured values as given in ChEMBL document CHEMBL3638950, “Imidazo[5,1-f][1,2,4]triazines for the treatment of neurological disorders” (2013).

Target: cGMP-dependent 3',5'-cyclic phosphodiesterase (Homo sapiens, UniProt O00408)
Assay: Inhibition Assay: The activity of the test substances on human full-length PDE2A3 enzyme was determined using the [3H]-cGMP scintillation proximity assay (SPA) modified from the Amersham TRKQ7100 instructions (GE Healthcare, USA).

cGMP-dependent 3',5'-cyclic phosphodiesterase, sequence (O00408 whole entry): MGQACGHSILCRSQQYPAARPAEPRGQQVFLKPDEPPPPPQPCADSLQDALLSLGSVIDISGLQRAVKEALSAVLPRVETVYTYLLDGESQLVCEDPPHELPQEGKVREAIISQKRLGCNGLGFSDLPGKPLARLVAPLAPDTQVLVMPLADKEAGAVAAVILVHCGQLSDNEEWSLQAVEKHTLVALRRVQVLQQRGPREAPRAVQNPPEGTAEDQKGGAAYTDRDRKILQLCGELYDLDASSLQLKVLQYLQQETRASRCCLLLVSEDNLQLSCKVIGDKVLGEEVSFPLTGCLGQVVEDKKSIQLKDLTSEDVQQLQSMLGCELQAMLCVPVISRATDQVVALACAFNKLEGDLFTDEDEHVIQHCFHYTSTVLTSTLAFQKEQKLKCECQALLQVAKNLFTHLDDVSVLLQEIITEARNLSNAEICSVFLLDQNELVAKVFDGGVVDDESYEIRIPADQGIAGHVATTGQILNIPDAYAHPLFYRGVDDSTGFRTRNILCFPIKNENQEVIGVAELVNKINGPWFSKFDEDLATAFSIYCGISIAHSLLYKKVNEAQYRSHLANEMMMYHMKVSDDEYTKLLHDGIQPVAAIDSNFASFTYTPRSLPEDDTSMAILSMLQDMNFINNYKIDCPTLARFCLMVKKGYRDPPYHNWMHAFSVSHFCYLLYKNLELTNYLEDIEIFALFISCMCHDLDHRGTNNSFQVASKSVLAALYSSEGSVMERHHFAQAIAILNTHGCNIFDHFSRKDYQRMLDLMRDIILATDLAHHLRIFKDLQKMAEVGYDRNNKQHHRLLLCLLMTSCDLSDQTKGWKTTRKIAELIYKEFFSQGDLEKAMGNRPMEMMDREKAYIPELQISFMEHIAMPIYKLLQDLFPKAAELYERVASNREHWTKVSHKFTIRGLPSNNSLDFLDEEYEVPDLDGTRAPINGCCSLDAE

IC50: 0.633 nM
Structure (SMILES): Cc1nc(-c2cnn(C)c2-c2ccc(C(F)(F)F)cc2)c2c(N3CC(F)C3)ncnn12
